Reference: patent publication US11820756B2, “Bradykinin B2 receptor antagonists” (Pharvaris Netherlands B.V., priority 2017, dated 2023)

Molecular target: T1, human bradykinin B2 receptor (hB2R) (Homo sapiens, UniProt P30411)
T1 sequence (P30411 1-391): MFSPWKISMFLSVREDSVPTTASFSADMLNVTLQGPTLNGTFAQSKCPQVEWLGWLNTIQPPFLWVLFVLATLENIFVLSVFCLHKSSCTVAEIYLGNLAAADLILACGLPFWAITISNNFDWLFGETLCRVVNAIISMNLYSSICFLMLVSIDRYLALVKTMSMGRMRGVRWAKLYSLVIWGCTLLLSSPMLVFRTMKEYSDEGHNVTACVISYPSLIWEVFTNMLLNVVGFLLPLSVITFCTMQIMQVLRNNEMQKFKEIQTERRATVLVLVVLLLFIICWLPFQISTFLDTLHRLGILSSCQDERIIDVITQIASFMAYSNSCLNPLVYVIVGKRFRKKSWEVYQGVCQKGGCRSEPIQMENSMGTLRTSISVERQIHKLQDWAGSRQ
Assay: cell-based human bradykinin B2 receptor calcium mobilization (hB2R-CaM) assay
Details: HTS041C cells, bradykinin at EC80, calcium mobilization; read-out: IC50-value towards human bradykinin B2 receptor (hB2R)
Method in brief: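 HTS041C cells stably expressing hB2R were serum-reduced, loaded with Calcium 6 dye and pre-incubated with compound (8-point, n=2, 0.1% DMSO) for 25 min at 37° C. Bradykinin was then added at EC80. IC50 came from a 4-parameter logistic fit of the max-min fluorescence signal (485/525 nm).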

Compound	IC50
Cc1cc(-n2nccn2)c2cccc(OCc3c(Cl)cc(F)cc3[C@H](C)NC(=O)C(C)(C)O)c2n1 [Compound 28]	0.051 to 0.25 µM
Cc1cc(-n2cc(F)cn2)c2cccc(OCc3c(Cl)cc(F)cc3[C@H](C)NC(=O)[C@@H]3CNC(=O)N3)c2n1 [Compound 113]	0.051 to 0.25 µM
Cc1cc(-n2cc(F)cn2)c2cccc(OCc3c(Cl)cc(F)cc3[C@H](C)NC(=O)[C@H]3CCC(=O)N3)c2n1 [Compound 115]	0.051 to 0.25 µM
Cc1cc(-n2cc(F)cn2)c2cccc(OCc3c(Cl)cc(F)cc3[C@H](C)NC(=O)[C@H](O)CN)c2n1 [Compound 3, (R)-3-amino-N—((S)-1-(3-chloro-5-fluoro-2-((4-(4-fluoro-1H-pyrazol-1-yl)-2-methylquinolin-8-yloxy)methyl)phenyl)ethyl)-2-hydroxypropanamide]	0.251 to 1 µM
CC[C@@H](O)C(=O)N[C@@H](C)c1cc(F)cc(Cl)c1COc1cccc2c(-n3ncnc3C)cc(C)nc12 [Compound 99]	0.051 to 0.25 µM
Cc1cc(-n2cc(F)cn2)c2cccc(OCc3c(Cl)cc(F)cc3[C@H](C)NC(=O)[C@@H](C)OC(F)F)c2n1 [Compound 93]	0.051 to 0.25 µM
Cc1cc(-c2ncnn2C)c2cccc(OCc3c(Cl)cc(F)cc3[C@H](C)NC(=O)C3(C)CCCO3)c2n1 (stereo partly shown) [Compound 119]	0.051 to 0.25 µM
Cc1cc(-n2cc(F)cn2)c2cccc(OCc3c(Cl)cc(F)cc3[C@H](C)N(C)C(=O)[C@H](C)Cl)c2n1 [Compound 103]	0.051 to 0.25 µM
Cc1cc(-n2nc(C)nc2C)c2cccc(OCc3c(Cl)cc(F)cc3[C@H](C)NC(=O)c3ccon3)c2n1 [Compound 135]	0.051 to 0.25 µM
Cc1cc(-n2cc(F)cn2)c2cccc(OCc3c(Cl)cc(F)cc3[C@H](C)NC(=O)C3CNC3)c2n1 [Compound 68]	0.051 to 0.25 µM
COC(=O)[C@H](O)CC(=O)N[C@@H](C)c1cc(F)cc(Cl)c1COc1cccc2c(-n3cc(F)cn3)cc(C)nc12 [Compound 69]	0.051 to 0.25 µM
CC[C@@H](O)C(=O)N[C@@H](C)c1cc(F)cc(Cl)c1COc1cccc2c(-n3cnc(C)n3)cc(C)nc12 [Compound 100]	0.251 to 1 µM
Cc1cc(-n2cc(F)cn2)c2cccc(OCc3c(Cl)cc(F)cc3[C@H](C)NC(=O)[C@@H](O)CCN(C)C)c2n1 [Compound 72]	0.251 to 1 µM
Cc1cc(-n2cc(F)cn2)c2cccc(OCc3c(Cl)cc(F)cc3[C@H](C)NC(=O)C3COC3)c2n1 [Compound 57]	≤ 0.05 µM
Cc1cc(-n2cc(F)cn2)c2cccc(OCc3c(Cl)cc(F)cc3[C@H](C)NC(=O)C(C)OCC3CC3)c2n1 (stereo partly shown) [Compound 51]	0.051 to 0.25 µM
Cc1cc(-n2ncnc2C)c2cccc(OCc3c(Cl)cc(F)cc3[C@H](C)NC(=O)CC(F)F)c2n1 [Compound 173]	≤ 0.05 µM
CCc1ncnn1-c1cc(C)nc2c(OCc3c(Cl)cc(F)cc3[C@H](C)NC(=O)COC(F)F)cccc12 [Compound 169]	≤ 0.05 µM
Cc1cc(-n2nc(C)nc2C)c2cccc(OCc3c(Cl)cc(F)cc3[C@H](C)NC(=O)COC(F)F)c2n1 [Compound 134]	≤ 0.05 µM
Cc1cc(-c2ncnn2C)c2cccc(OCc3c(Cl)cc(F)cc3[C@H](C)NC(=O)C(C)(C)O)c2n1 [Compound 64]	≤ 0.05 µM
CC[C@H](NC(=O)COC(F)F)c1cc(F)cc(Cl)c1COc1cccc2c(-n3ncnc3C)cc(C)nc12 [Compound 166]	≤ 0.05 µM
Cc1cc(-n2cc(F)cn2)c2cccc(OCc3c(Cl)cc(F)cc3[C@H](C)NC(=O)[C@@H](O)CCN)c2n1 [Compound 66]	0.051 to 0.25 µM

Results, then the molecule that gave them:

IC50	Compound
≤ 0.05 µM	Cc1cc(-c2ncnn2C)c2cccc(OCc3c(Cl)cc(F)cc3[C@H](C)NC(=O)[C@@H]3CC[C@H](C)O3)c2n1 [Compound 133]
≤ 0.05 µM	Cc1cc(-n2cc(F)cn2)c2cccc(OCc3c(Cl)cc(F)cc3[C@H](C)NC(=O)C[C@H](C)O)c2n1 [Compound 27]
≤ 0.05 µM	[2H][C@@](C)(NC(=O)[C@@H](C)F)c1cc(F)cc(Cl)c1COc1cccc2c(-n3ncnc3C)cc(C)nc12 [Compound 11C, (R)—N—((S)-1-deutero-1-(3-chloro-5-fluoro-2-((2-methyl-4-(5-methyl-1H-1,2,4-triazol-1-yl)quinolin-8-yloxy)methyl)phenyl)ethyl)-2-fluoropropanamide]
≤ 0.05 µM	Cc1cc(-n2cc(F)cn2)c2cccc(OCc3c(Cl)cc(F)cc3[C@H](C)NC(=O)[C@@H]3CCOC3)c2n1 [Compound 19]
≤ 0.05 µM	[2H]C([2H])([2H])[C@]([2H])(NC(=O)COC(F)F)c1cc(F)cc(Cl)c1COc1cccc2c(-c3ncnn3C)cc(C)nc12 [Compound 11A, N-[(1S)-1-[3-chloro-5-fluoro-2-({[2-methyl-4-(1-methyl-1H-1,2,4-triazol-5-yl)quinolin-8-yl]oxy}methyl)phenyl](1,2,2,2-^2H4)ethyl]-2-(difluoromethoxy)acetamide]
≤ 0.05 µM	Cc1cc(-c2ccnn2C)c2cccc(OCc3c(Cl)cc(F)cc3[C@H](C)NC(=O)[C@H](C)O)c2n1 [Compound 195]
≤ 0.05 µM	[2H][C@@](C)(NC(=O)[C@H](C)F)c1cc(F)cc(Cl)c1COc1cccc2c(-c3ncnn3C)cc(C)nc12 [Compound 213]
≤ 0.05 µM	Cc1cc(-c2ncnn2C)c2cccc(OCc3c(Cl)cc(F)cc3[C@H](C)NC(=O)c3ocnc3C)c2n1 [Compound 126]
≤ 0.05 µM	[2H]C([2H])([2H])[C@]([2H])(NC(=O)c1cocn1)c1cc(F)cc(Cl)c1COc1cccc2c(-c3ncnn3C)cc(C)nc12 [Compound 201]
≤ 0.05 µM	Cc1cc(-n2cc(F)cn2)c2cccc(OCc3c(Cl)cc(F)cc3[C@H](C)NC(=O)c3coc(C)n3)c2n1 [Compound 92]
≤ 0.05 µM	Cc1cc(-c2ncnn2C)c2cccc(OCc3c(Cl)cc(F)cc3[C@H](C)NC(=O)CC(F)(F)F)c2n1 [Compound 177]
≤ 0.05 µM	Cc1cc(-n2cc(F)cn2)c2cccc(OCc3c(Cl)cc(F)cc3[C@H](C)N(C)C(=O)[C@H](C)O)c2n1 [Compound 2, (S)—N—((S)-1-(3-chloro-5-fluoro-2-((4-(4-fluoro-1H-pyrazol-1-yl)-2-methylquinolin-8-yloxy)methyl)phenyl)ethyl)-2-hydroxy-N-methylpropanamide]
≤ 0.05 µM	Cc1cc(-n2cc(F)cn2)c2cccc(OCc3c(Cl)cc(F)cc3[C@H](C)NC(=O)C3(C)CCCO3)c2n1 (stereo partly shown) [Compound 110]
≤ 0.05 µM	[2H][C@@](C)(NC(=O)CC(F)F)c1cc(F)cc(Cl)c1COc1cccc2c(-c3ncnn3C)cc(C)nc12 [Compound 210]
≤ 0.05 µM	CC[C@H](NC(=O)c1ccon1)c1cc(F)cc(Cl)c1COc1cccc2c(-c3ncnn3C)cc(C)nc12 [Compound 150]
≤ 0.05 µM	Cc1cc(-n2cc(F)cn2)c2cccc(OCc3c(Cl)cc(F)cc3[C@H](C)NC(=O)COC(F)(F)F)c2n1 [Compound 121]
≤ 0.05 µM	[2H][C@@](C)(NC(=O)[C@H](C)F)c1cc(F)cc(Cl)c1COc1cccc2c(-n3ncnc3C)cc(C)nc12 [Compound 212]
≤ 0.05 µM	Cc1cc(-c2ncnn2C)c2cccc(OCc3c(Cl)cc(F)cc3[C@H](C)NC(=O)c3cnco3)c2n1 [Compound 120]
≤ 0.05 µM	Cc1cc(-c2ncc(C#N)n2C)c2cccc(OCc3c(Cl)cc(F)cc3[C@H](C)NC(=O)COC(F)F)c2n1 [Compound 205]
≤ 0.05 µM	[2H][C@@](CO)(NC(=O)COC(F)F)c1cc(F)cc(Cl)c1COc1cccc2c(-c3ncnn3C)cc(C)nc12 [Compound 11B, (R)—N-(1-Deutero-1-(3-chloro-5-fluoro-2-((2-methyl-4-(1-methyl-1H-1,2,4-triazol-5-yl)quinolin-8-yloxy)methyl)phenyl)-2-hydroxyethyl)-2-(difluoromethoxy)acetamide]
≤ 0.05 µM	COCC(=O)N[C@@H](C)c1cc(F)cc(Cl)c1COc1cccc2c(-c3ncnn3C)cc(C)nc12 [Compound 83]
≤ 0.05 µM	Cc1cc(-c2ncnn2C)c2cccc(OCc3c(Cl)cc(F)cc3[C@H](C)NC(=O)c3cc(C)n(C)n3)c2n1 [Compound 129]
≤ 0.05 µM	COCC(=O)N[C@@H](C)c1cc(F)cc(Cl)c1COc1cccc2c(-n3cc(F)cn3)cc(C)nc12 [Compound 12]
≤ 0.05 µM	[2H][C@@](C)(NC(=O)c1cocn1)c1cc(F)cc(Cl)c1COc1cccc2c(-c3ncnn3C)cc(C)nc12 [Compound 199]
≤ 0.05 µM	CO[C@H](C)C(=O)N[C@@H](C)c1cc(F)cc(Cl)c1COc1cccc2c(-n3cc(F)cn3)cc(C)nc12 [Compound 17]
≤ 0.05 µM	CCOCC(=O)N[C@@H](C)c1cc(F)cc(Cl)c1COc1cccc2c(-n3cc(F)cn3)cc(C)nc12 [Compound 18]
≤ 0.05 µM	CO[C@@H](C)C(=O)N[C@@H](C)c1cc(F)cc(Cl)c1COc1cccc2c(-n3nccn3)cc(C)nc12 [Compound 29]
≤ 0.05 µM	Cc1cc(-n2cc(F)cn2)c2cccc(OCc3c(Cl)cc(F)cc3[C@H](C)NC(=O)[C@H]3CCOC3)c2n1 [Compound 15]
